Test results as given in patent US7855288B2, “Pyrrolo [1,2-d] [1,2-4] triazine as inhibitors of c-Jun N terminal kinases (JNK) and p-38 kinases” (Novartis AG, priority 2004, dated 2010).

Legend:
[1] = target: T1, p38α kinase (Homo sapiens, UniProt Q16539); test: p38α assay (ADP release coupled to NADH oxidation); assay type: biochemical; details: p38 kinase IC50 class, Table 1; read-out: p38α inhibition
T1 construct: purchased Upstate
Description: The p38α assay employed is based on measurement of ADP released in the reaction of interest through NADH oxidation obtained by coupling with pyruvate kinase and lactate dehydrogenase reactions. The assays were performed in 384-well UV-plates. The final volume was 25 uL prepared from the addition of 2.5 uL compound dissolved in 10% DMSO, 17.5 uL of assay buffer and 5 uL of ATP. Assay buffer contains the following reagents to give final concentration in the assay: 25 mM HEPES, 20 mM 2-glycerophosphate, pH 7.6, 10 mM MgCl2, 0.1 mM sodium orthovanadate, 0.5 mM phosphoenolpyruvate, 0.12 mM NADH, 3.1 mg/ml LDH, 6.67 mg/ml pyruvate kinase, 0.25 mM peptide substrate, 2 mM DTT, 0.005% Tween 80 and 20 nM p38α kinase from Upstate. Test compounds are preincubated with p38α kinase for 60 min and the reaction started by addition of ATP to 0.15 mM final concentration. Reaction rates were measured at 340 nm using SpectraMax plate-reading spectrophotometer for 10 min at 37° C. Inhibition data were analyzed by non-linear least-squares regression using SigmaPlot.

[2] = target: human recombinant Jnk2 (Homo sapiens, UniProt P45984); test: JNK enzymatic assay (33P incorporation into peptide); assay type: biochemical; details: JNK2 kinase IC50 class, Table 1
Chain of human recombinant Jnk2 (P45984 whole entry): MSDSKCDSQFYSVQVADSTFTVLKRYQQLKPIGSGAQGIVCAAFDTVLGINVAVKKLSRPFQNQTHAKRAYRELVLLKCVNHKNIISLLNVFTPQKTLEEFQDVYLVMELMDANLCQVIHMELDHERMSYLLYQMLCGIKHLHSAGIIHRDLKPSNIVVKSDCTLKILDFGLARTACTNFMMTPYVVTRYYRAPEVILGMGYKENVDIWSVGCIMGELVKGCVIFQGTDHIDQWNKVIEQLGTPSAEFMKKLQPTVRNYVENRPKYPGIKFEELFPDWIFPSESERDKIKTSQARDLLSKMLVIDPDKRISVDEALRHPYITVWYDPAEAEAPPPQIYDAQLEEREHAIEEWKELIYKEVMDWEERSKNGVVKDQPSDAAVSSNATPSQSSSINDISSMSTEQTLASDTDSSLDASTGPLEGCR
Description: In a final reaction volume of 20 μL, 5 nM human recombinant Jnk2 was incubated in the absence or presence of putative JNK inhibitors in increasing concentrations with 25 mM HEPES pH 7.5, 20 mM p-glycerophosphate, 10 mM MgCl2, 0.1 mM sodium orthovanadate, 0.005% Tween® 80, 10 uM [γ-^33P-ATP], 500 μM IPTTPITTTYFFFKKK peptide substrate and 2 mM DTT. The reaction was initiated by the addition of the [g-^33P-ATP]. After incubation for 20 minutes at 30° C., the aliquots were transferred onto P30/GF filtermats (PerkinElmer). Each filtermat washed four times in 100 ml 0.5% phosphoric acid, 0.5 mM pyrophosphate, then twice in 50 ml ethanol, dried and sealed into bag containing 5 ml of OptiPhase “SuperMix” liquid scintillation cocktail (PerkinElmer). Radioactivity incorporated into peptide was quantified on Trilux 1450 Microbeta plate-reader. IC50 values were calculated using SigmaPlot.

T1 sequence (Q16539 whole entry): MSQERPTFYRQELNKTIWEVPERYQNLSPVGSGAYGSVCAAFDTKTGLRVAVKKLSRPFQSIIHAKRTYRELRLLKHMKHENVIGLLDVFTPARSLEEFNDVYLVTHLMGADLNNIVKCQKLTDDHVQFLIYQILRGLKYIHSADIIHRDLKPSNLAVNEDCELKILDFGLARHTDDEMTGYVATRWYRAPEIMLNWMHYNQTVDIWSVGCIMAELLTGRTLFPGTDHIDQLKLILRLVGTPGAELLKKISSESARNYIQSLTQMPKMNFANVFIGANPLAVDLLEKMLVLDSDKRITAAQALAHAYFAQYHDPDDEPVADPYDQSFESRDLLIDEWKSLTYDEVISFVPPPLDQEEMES

Row | IC50 [1] [µM] | IC50 [2] [µM] | SMILES
1 | 1 to 10 | 1 to 10 | CCOC(=O)c1cc2cnnc(Nc3cc(C(=O)NC4CC4)ccc3OC)n2c1C [Compound 1, 4-(5-Cyclopropylcarbamoyl-2-methoxy-phenylamino)-6-methyl-pyrrolo[1,2-d][1,2,4]triazine-7-carboxylic acid ethyl ester]
2 | 1 to 10 |  | CCOC(=O)c1cc2cnnc(Nc3cc(-c4nnc[nH]4)ccc3C)n2c1C [Compound 2, 4-[2-Methyl-5-(4H-[1,2,4]triazol-3-yl)-phenylamino]-6-methyl-pyrrolo[1,2-d][1,2,4]triazine-7-carboxylic acid ethyl ester]
3 | < 1 | < 1 | CCOC(=O)c1cc2cnnc(Nc3cc(C(=O)NC4CC4)ccc3C)n2c1C [Compound 3, 4-(5-Cyclopropylcarbamoyl-2-methyl-phenylamino)-6-methyl-pyrrolo[1,2-d][1,2,4]triazine-7-carboxylic acid ethyl ester]
4 | < 1 | < 1 | Cc1ccc(C(=O)NC2CC2)cc1Nc1nncc2cc(C(=O)NCc3ccccc3)c(C)n12 [Compound 4, 4-(5-Cyclopropylcarbamoyl-2-methyl-phenylamino)-6-methyl-pyrrolo[1,2-d][1,2,4]triazine-7-carboxylic acid benzylamide]
5 | < 1 | < 1 | CCOC(=O)Nc1ccc(C)c(Nc2nncc3cc(C(=O)OCC)c(C)n23)c1 [Compound 5, 4-(5-Ethoxycarbonylamino-2-methyl-phenylamino)-6-methyl-pyrrolo[1,2-d][1,2,4]triazine-7-carboxylic acid ethyl ester]
6 | 1 to 10 | 1 to 10 | CCOC(=O)c1cc2cnnc(Nc3ccc(Cl)cc3)n2c1C [Compound 6]
7 | < 1 | < 1 | CNC(=O)c1cc2cnnc(Nc3cc(C(=O)NC4CC4)ccc3C)n2c1C [Compound 7]
8 | < 1 | 1 to 10 | Cc1ccc(C(=O)NC2CC2)cc1Nc1nncc2cc(C(=O)NC3CC3)c(C)n12 [Compound 8]
9 | 1 to 10 | 1 to 10 | CCNC(=O)c1ccc(C)c(Nc2nncc3cc(C(=O)OCC)c(C)n23)c1 [Compound 9]
10 |  | 1 to 10 | CCOC(=O)c1cc2cnnc(Nc3ccc(C(=O)OC)cc3)n2c1C [Compound 10]
11 | 1 to 10 | 1 to 10 | CCOC(=O)c1cc2cnnc(Nc3cccc(C(=O)NC4CC4)c3)n2c1C [Compound 11]
12 | 1 to 10 | 1 to 10 | CCOC(=O)c1cc2cnnc(Nc3cc(C(=O)Nc4ccccc4)ccc3C)n2c1C [Compound 12]
13 |  | 1 to 10 | CCOC(=O)c1cc2cnnc(Nc3cc(-c4ncco4)ccc3C)n2c1C [Compound 13]
14 | 1 to 10 | 1 to 10 | CCOC(=O)c1cc2cnnc(Nc3cc(NC(=O)OC(C)C)ccc3C)n2c1C [Compound 14]
15 | 1 to 10 | 1 to 10 | CCOC(=O)c1cc2cnnc(Nc3ccccc3)n2c1C [Compound 15]
16 | 1 to 10 | 1 to 10 | CCOC(=O)c1cc2cnnc(Nc3ccccc3C)n2c1C [Compound 16]
17 |  | 1 to 10 | CCOC(=O)c1cc2cnnc(Nc3cccc(C(=O)O)c3)n2c1C [Compound 17]
18 | 1 to 10 | 1 to 10 | CCOC(=O)c1cc2cnnc(Nc3cc(C(=O)O)ccc3C)n2c1C [Compound 18]
19 | > 10 | 1 to 10 | CCOC(=O)c1cc2cnnc(Nc3cc(NC(C)=O)ccc3C)n2c1C [Compound 19]
20 | 1 to 10 | 1 to 10 | CCOC(=O)c1cc2cnnc(Nc3cc(C(=O)NCc4ccccc4)ccc3C)n2c1C [Compound 20]
21 |  | > 10 | CCOC(=O)c1cc2cnnc(Nc3cc(C(=O)NC(C)C)ccc3C)n2c1C [Compound 21]
22 |  | > 10 | CCOC(=O)c1cc2cnnc(Nc3cc(C(=O)N4CCOCC4)ccc3C)n2c1C [Compound 22]
23 |  | > 10 | CCOC(=O)c1cc2cnnc(Nc3cc(C(N)=O)ccc3C)n2c1C [Compound 23]
24 | > 10 | > 10 | CCOC(=O)c1cc2cnnc(Nc3cc(N)ccc3C)n2c1C [Compound 24]
